Tested on: MHC I epitope of Trp2 (VYDFFVWL)
Assay: CD8 immune response to Trp2 epitope variants co-incubated with L-Dopa
Type: in vivo, mice
Conditions: peptide 10 μg/mouse co-incubated with L-Dopa 100 μg/mouse, then mixed to CpG-28 10 μg/mouse; immunized once; day 8
Method: C57-B16, 5-week old, mice were immunized twice (on day 1 and day 7) with the different formulations combined to a Toll-like Receptor 9 (TLR-9) agonist (10 μg of the CpG-28 oligonucleotide, […] (SEQ ID NO: 1)). After 2 immunizations, the CD8+immune response was evaluated on day 14 using a gamma interferon (IFNg)-secretion Elispot assay, after restimulation of total splenocytes with the relevant MHC class-1 epitope ([…] (SEQ ID NO: 2) for Ovalbumine or […] (SEQ ID NO: 3) for human gp100)
Adding arginines (R) or lysines (K) to the NH2-terminal end of the peptides enhanced the immune response when compared to unmodified Trp2 (animals were immunized once with formulations consisting of the peptide (10 μg/mouse) co-incubated with L-Dopa (100 μg/mouse), then mixed to CpG-28 (10 μg/mouse). The CD8 immune responses were assessed on day 8).

VYDFFVWL (MHC I epitope of Trp2) was tested, and the “number of IFNy-secreting lymphocytes mean +/− SD” value was 30 +/− 34.

— patent publication US10857227B2, “Immunostimulatory compositions” (ASSISTANCE PUBLIQUE-HOPITAUX DE PARIS, priority 2015, dated 2020)
